One molecule from EPA's ToxValDB 9.5 (doi:10.2903/j.efsa.2009.201r) can be followed below.

The test system of data set [1] is Anas platyrhynchos. As to conditions: oral, mortality.
Data set [2] deals with Apis mellifera. As to conditions: acute; duration: 48 hours; dermal; mortality.
Data set [3] relates to Canidae. As to conditions: chronic; duration: 1 years; oral; Dog Other; body weight.
The test system of data set [4] is Colinus virginianus.
The test system of data set [5] is Daphnia magna. As to conditions: chronic/long-term; duration: 21 days; growth.
The test system of data set [6] is Oncorhynchus mykiss.
For data set [7], the system named is Rattus norvegicus. As to conditions: for NOAEL: chronic.
Data set [8] has as its system Tagia sp. As to conditions: mortality.

In general, NOAEL refers to the highest tested level that showed no adverse finding. Regarding `COc1nc(C)nc(NC(=O)NS(=O)(=O)c2ccccc2Cl)n1` [Chlorsulfuron], the LD50 was more than 5000 mg/kg-day in data set [1] (acute, unspecified); more than 100 µg/piece in data set [2]; more than 5000 mg/kg-day in data set [4] (acute, oral, mortality); more than 5540 mg/kg-day in data set [7] (acute, oral, mortality). The LC50 is more than 634 mg/kg-day in data set [1] (short-term, feed); more than 122 µg/mL in data set [6] (acute, duration: 96 hours, mortality); more than 750 mg/kg in data set [8] (acute, duration: 14 days). Besides, the NOAEL in data set [3] was 60.6 mg/kg-day; in data set [7] it was 75 mg/kg-day; in data set [7] (duration: 2 years, histopathology: neoplastic) it was 20 mg/kg-day. Besides, in data set [4] (reproduction developmental), the NOEL was determined as 28 mg/kg-day. The NOEC came out at 12 mg/L in data set [5]; 32 mg/L in data set [6] (chronic/long-term, duration: 77 days, growth); 188 mg/kg in data set [8] (chronic/long-term, duration: 56 days).
